Assay results: paper PMC4854934, “Rapid Screening of Antimicrobial Synthetic Peptides” (International Journal of Peptide Research and Therapeutics, 2015)
In brackets after ≈: the same amount, converted by molar mass. Entries after “also recorded” stand apart in the source; their conditions may differ. Structures can show the parent of a compound that is named as a salt. Where two headings read alike, the source gives them in different places. Where a SMILES comes first, the peptide text is derived from it. Bridges are numbered along the chain shown (N, C = ends). Roman numbers before positions name the chains, in order. Where no end group is shown, it is not given here. The star is where a group is joined. Palmitoyl = CCCCCCCCCCCCCCCC(=O)*; Myristoyl = CCCCCCCCCCCCCC(=O)*; Lauroyl = CCCCCCCCCCCC(=O)*

Key:
Assay type in all cases: cell-based
[1] = tested on: Bacillus subtilis ATCC 6633
Description: (§1) Minimum inhibitory concentration (MIC) was determined by broth microdilution method on 96-well polypropylene plates, according to Clinical and Laboratory Standards Institute (CLSI) recommendations. All tests were conducted in triplicate and involved six reference strains of the following bacteria: Bacillus subtilis ATCC 6633, Escherichia coli ATCC 25922, Klebsiella pneumoniae ATCC 200603, Pseudomonas aeruginosa ATCC 9027, Staphylococcus aureus ATCC 25923, Staphylococcus epidermidis ATCC 14490 and two reference strains of fungi: Candida albicans ATCC 10231 and Candida tropicalis PCM 2681. Concentrations of applied peptides ranged from 512 to 1 µg/mL. Two microbiological media were used: Mueller–Hinton Broth for bacteria and Sabouraud Dextrose Broth for fungi. Incubation took 18 h at 37 °C and 48 h at 27 °C respectively. MIC was taken as the lowest concentration of a peptide where the visible growth of microbes was inhibited.

[2] = tested on: Candida albicans ATCC 10231
Description: as §1

[3] = tested on: Candida tropicalis PCM 2681
Description: as §1

[4] = tested on: Escherichia coli ATCC 25922
Description: as §1

[5] = tested on: Klebsiella pneumoniae ATCC 200603
Description: as §1

[6] = tested on: Pseudomonas aeruginosa ATCC 9027
Description: as §1

[7] = tested on: Staphylococcus aureus ATCC 25923
Description: as §1

[8] = tested on: Staphylococcus epidermidis ATCC 14490
Description: as §1

[9] = tested on: all microorganisms tested; assay: TLC direct bioautography (TLC-DB) with resazurin; conditions: crude peptide, bacteria 37 °C 5 h, fungi 27 °C 7 h, resazurin 4 mg/mL (0.1 % Triton X-100); for TLC-DB with separation: zones after resazurin: 4 µL of 5 mg/mL, n-butanol/acetone/acetic acid/5 % ammonia/water 4.5:1.5:1:1:2; for TLC-DB without separation: appearance of spot after resazurin: 10 µL of 5 mg/mL applied directly on TLC plate, no development
Description: Direct bioautography assays to choose the most suitable and efficient stationary phase were performed on the following TLC plates: TLC Silica gel 60 RP-18 F254S (Merck), HPTLC-Platten Nano-SIL 20 UV254 (Macherey–Nagel), HPTLC Nano-ADAMANT UV254 (Macherey–Nagel) and TLC Aluminium oxide 60 F254 (Merck). The plates were sealed separately and autoclaved at 121 °C for 15 min. Peptide samples were dissolved in the solution of methanol and distilled water (75:25). 4 μL of each sample (5 mg/mL) was applied on the TLC plate. Separation was performed using a mobile phase consisting of n-butanol, acetone, acetic acid, 5 % ammonia and distilled water (4.5:1.5:1:1:2 v/v/v/v/v). Moreover, samples without separation were also investigated. In this case 10 µL of each sample was applied directly on the TLC plate and dried. All processes were performed under sterile conditions in the laminar flow cabinet. Microbiological assays were conducted using fivefold dilution of overnight culture of bacteria and a 48-h culture of fungi. After evaporation of eluents, TLC plates were sterilized under UV for 15 min and dipped into previously prepared inoculums of microorganisms for 20 s. Subsequently they were placed in a sterile Petri dish and incubated—bacteria at 37 °C for 5 h and fungi at 27 °C for 7 h. To visualize the growth inhibition zones, the plates were sprayed with 4 mg/mL (0.1 % Triton X-100) of a cell viability reagent, resazurin salt solution (Sigma-Aldrich).
To determine the usefulness of the TLC layer material, preliminary separation experiments were carried out. […] RP-18 layer’s stability was affected by TLC-bioautography procedures, resulting in material disruption. On the other hand, aluminum oxide layer was stable enough, however it gave low quality separation. Therefore, Nano-Sil and Nano-ADAMANT layers were chosen as the most suitable for TLC-DB of synthetic antimicrobial peptides. Mobile phase consisting of n-butanol, acetone, acetic acid, 5 % ammonia and distilled water (4.5:1.5:1:1:2 v/v/v/v/v) provided the best separation of tested compounds. Moreover, the influence of TFA content among crude peptides was also investigated. In this case all tested compounds were lyophilized from 0.1 mM HCl for three times before application on TLC plate in order to exchange the TFA to chloride counter ion. Nevertheless, the obtained results were the same. Assays with (Fig. 1) and without separation (Fig. 2) were performed simultaneously. Growing microorganisms that adhered to the surface of the TLC plate reduced the dye to pink resorufin. […] The Rf values of non-viable cell area were the same for purified compounds.

[10] = tested on: all the tested species of bacteria and fungi; assay: Broth microdilution, summary over all strains; conditions: summary of Tables 1, 2
Description: as §1

[11] = broth microdilution, 96-well polypropylene plates, Mueller-Hinton Broth, 18 h at 37 °C, peptide 512 to 1 µg/mL, triplicate, visible growth
[12] = broth microdilution, 96-well polypropylene plates, Sabouraud Dextrose Broth, 48 h at 27 °C, peptide 512 to 1 µg/mL, triplicate, visible growth

Row | Compound | MIC against B. subtilis ATCC 6633 [1, 11] [µg/mL] | MIC against C. albicans ATCC 10231 [2, 12] [µg/mL] | MIC against C. tropicalis PCM 2681 [3, 12] [µg/mL] | MIC against E. coli ATCC 25922 [4, 11] [µg/mL] | MIC against K. pneumoniae ATCC 200603 [5, 11] [µg/mL] | MIC against P. aeruginosa ATCC 9027 [6, 11] [µg/mL] | MIC against S. aureus ATCC 25923 [7, 11] [µg/mL] | MIC against S. epidermidis ATCC 14490 [8, 11] [µg/mL] | TLC-DB with separation: zones after resazurin [9] | TLC-DB without separation: appearance of spot after resazurin [9] | antimicrobial activity among all the tested species of bacteria and fungi [10] | MIC against B. subtilis ATCC 6633 ([1]; ATCC 6633, 18 h) [µg/mL] | MIC against C. albicans ATCC 10231 ([2]; ATCC 10231, 48 h) [µg/mL] | MIC against C. tropicalis PCM 2681 ([3]; PCM 2681, 48 h) [µg/mL] | MIC against E. coli ATCC 25922 ([4]; ATCC 25922, 18 h) [µg/mL] | MIC against K. pneumoniae ATCC 200603 ([5]; ATCC 200603, 18 h) [µg/mL] | MIC against P. aeruginosa ATCC 9027 ([6]; ATCC 9027, 18 h) [µg/mL] | MIC against S. aureus ATCC 25923 ([7]; ATCC 25923, 18 h) [µg/mL] | MIC against S. epidermidis ATCC 14490 ([8]; ATCC 14490, 18 h) [µg/mL]
1 | CC[C@H](C)[C@H](N)C(=O)N[C@@H](CS)C(=O)N[C@@H](Cc1c[nH]cn1)C(=O)N[C@@H](Cc1c[nH]cn1)C(=O)N[C@@H](CS)C(=O)N[C@H](C(=O)O)[C@@H](C)CC [ICHHCI-OH] (H-ICHHCI-OH; N-terminus assumed) | >512 | >512 | >512 | >512 | >512 | >512 | >512 | >512 | white reduction zone; also recorded: white inhibition zone | soft white inhibition zone | no antimicrobial activity | – | – | – | – | – | – | – | –
2 | CCCCCCCCCCCC(=O)N[C@@H](CSSC[C@H](NC(=O)CCCCCCCCCCC)C(=O)N[C@@H](CCCCN)C(=O)N[C@@H](CCCCN)C(N)=O)C(=O)N[C@@H](CCCCN)C(=O)N[C@@H](CCCCN)C(N)=O [Laur-CKK-NH2 dimer] (I: Lauroyl-Cys-Lys-Lys-NH2 / II: Lauroyl-Cys-Lys-Lys-NH2; disulfide I:1-II:1) | – | – | – | – | – | – | – | – | two blue spots; also recorded: two inhibition zones | did not reduce resazurin | – | 2 (≈ 1.79 µM) | 512 (≈ 459 µM) | >512 | 8 (≈ 7.17 µM) | 8 (≈ 7.17 µM) | 512 (≈ 459 µM) | 8 (≈ 7.17 µM) | 2 (≈ 1.79 µM)
3 | CCCCCCCCCCCCCC(=O)N[C@@H](CCCCN)C(=O)NCC(=O)N[C@@H](CCCCN)C(N)=O [Mir-KGK-NH2] (Myristoyl-Lys-Gly-Lys-NH2) | – | – | – | – | – | – | – | – | – | did not reduce resazurin | – | 2 (≈ 3.7 µM) | 128 (≈ 237 µM) | 256 (≈ 473 µM) | 64 (≈ 118 µM) | 128 (≈ 237 µM) | >512 | 16 (≈ 29.6 µM) | 4 (≈ 7.4 µM)
4 | CCCCCCCCCCCCCCCC(=O)N[C@@H](CCCCNC(=O)C(F)(F)F)C(=O)N[C@@H](CCCCNC(=O)C(F)(F)F)C(N)=O [Pal-K(TFA)K(TFA)-NH2] | – | – | – | – | – | – | – | – | – | – | no antimicrobial activity | >512 | >512 | >512 | >512 | >512 | >512 | >512 | >512
5 | CCCCCCCCCCCCCCCC(=O)N[C@@H](CCCCN)C(=O)NCC(=O)N[C@@H](CCCCN)C(N)=O [Pal-KGK-NH2] (Palmitoyl-Lys-Gly-Lys-NH2) | – | – | – | – | – | – | – | – | – | did not reduce resazurin | – | 2 (≈ 3.52 µM) | 64 (≈ 113 µM) | >512 | 8 (≈ 14.1 µM) | 16 (≈ 28.1 µM) | 64 (≈ 113 µM) | 16 (≈ 28.1 µM) | 4 (≈ 7.03 µM)
6 | CCCCCCCCCCCCCCCC(=O)N[C@@H](CCCCN)C(=O)N[C@@H](CCCCN)C(N)=O [Pal-KK-NH2] | – | – | – | – | – | – | – | – | – | did not reduce resazurin | – | 2 (≈ 3.91 µM) | 128 (≈ 250 µM) | 128 (≈ 250 µM) | 8 (≈ 15.6 µM) | 16 (≈ 31.3 µM) | 128 (≈ 250 µM) | 8 (≈ 15.6 µM) | 4 (≈ 7.82 µM)
7 | GLFDVIKKVASVIGGL-NH2 [Citropin 1.1] | – | – | – | – | – | – | – | – | – | – | – | 4 | 128 | 128 | 32 | 128 | 256 | 16 | 8
8 | KWKLFKKIGAVLKVL-NH2 [CAMEL] | 2 | 128 | 256 | 2 | 2 | 256 | 4 | 1 | – | – | – | – | – | – | – | – | – | – | –
9 | QQRFEWEFEQQ-NH2 [p11] | >512 | >512 | >512 | >512 | >512 | >512 | >512 | >512 | – | – | – | – | – | – | – | – | – | – | –
